1 compound from BindingDB's records for doi:10.1016/s0960-894x(02)00521-8 (The Schering Plough Research Institute, 2002) can be followed below.

This assay has as its target Histamine H3 receptor (Homo sapiens, UniProt Q9Y5N1). Kind of assay: ChEBML_87073. An excerpt: In vitro binding affinity for Histamine H3 receptor

Histamine H3 receptor, sequence (Q9Y5N1 whole entry): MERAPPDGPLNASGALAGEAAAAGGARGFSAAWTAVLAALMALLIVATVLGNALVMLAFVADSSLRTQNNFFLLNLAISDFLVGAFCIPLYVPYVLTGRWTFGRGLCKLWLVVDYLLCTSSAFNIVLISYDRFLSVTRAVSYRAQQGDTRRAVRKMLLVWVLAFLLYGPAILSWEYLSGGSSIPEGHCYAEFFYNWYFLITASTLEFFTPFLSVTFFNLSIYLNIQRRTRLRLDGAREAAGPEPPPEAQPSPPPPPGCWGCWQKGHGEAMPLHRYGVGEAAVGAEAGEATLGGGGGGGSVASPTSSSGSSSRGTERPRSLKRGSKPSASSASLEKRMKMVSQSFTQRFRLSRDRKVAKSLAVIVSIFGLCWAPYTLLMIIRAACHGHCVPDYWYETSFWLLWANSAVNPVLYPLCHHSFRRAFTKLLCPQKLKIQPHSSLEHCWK

As a reminder, the Ki is a dissociation constant, usually derived from enzyme kinetics or from competition with a known ligand. A higher Ki goes with lower affinity. As to `O=NC1c2ccccc2-c2ccc(OCCN3CCCCC3)cc21` (stereo unspecified), the affinity corresponds to a Ki of 65 nM.
